Measured values taken from PMC6891315, “Synthesis of Novel Farnesoid X Receptor Agonists and Validation of Their Efficacy in Activating Differentiation of Mouse Bone Marrow-Derived Mesenchymal Stem Cells into Osteoblasts” (Molecules, 2019).

Assays:
[1] = target: T1, LXRα (Homo sapiens, UniProt Q13133); assay: LXRα response element-driven luciferase reporter assay in COS-7 cells; conditions: 1 μM
T1 sequence (Q13133 1-447): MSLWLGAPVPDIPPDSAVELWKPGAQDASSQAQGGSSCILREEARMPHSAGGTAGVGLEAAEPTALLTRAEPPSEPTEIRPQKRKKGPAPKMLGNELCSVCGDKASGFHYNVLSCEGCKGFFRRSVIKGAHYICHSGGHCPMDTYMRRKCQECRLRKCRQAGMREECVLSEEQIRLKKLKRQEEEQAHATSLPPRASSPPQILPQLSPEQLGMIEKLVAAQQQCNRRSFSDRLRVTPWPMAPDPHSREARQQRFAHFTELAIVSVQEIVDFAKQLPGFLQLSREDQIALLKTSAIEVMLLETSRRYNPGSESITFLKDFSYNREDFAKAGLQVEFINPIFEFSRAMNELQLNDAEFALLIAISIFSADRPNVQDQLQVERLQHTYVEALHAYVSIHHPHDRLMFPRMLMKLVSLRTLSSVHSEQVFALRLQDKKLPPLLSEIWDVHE
Procedure: Luciferase reporter assay was performed as described previously [53]. Briefly, human hepatoma Huh-7 (for FXR, RARα, and RXRα), transformed African green monkey kidney fibroblast COS-7 (for LXRα/β and PPARα/γ/δ), or human embryonic kidney HEK293 (for VDR and TGR5) cells were transfected with each of plasmids for nuclear receptor and nuclear receptor-response element-driven luciferase gene. […] The luciferase activity was measured as described previously [53].

[2] = test system: ST-2 MSCs; assay: Cell toxicity (WST, Cell Counting Kit-8) assay; type: cell-based, mouse; conditions: 12 days; 0–10 μM CDCA, 0–5 μM GW4064, 0–5 μM 3 or 4
Procedure: The cells were washed twice with PBS, and cell viability was determined using Cell Counting Kit-8 (Dojindo Molecular Technologies, Kumamoto, Japan) according to the protocols provided by the supplier. The cell viability (%) was shown relative to the vehicle-treated cells (0 μM).

[3] = test system: FXR, BSEP and SHP gene expression in ST-2 MSCs; assay: qPCR of FXR and FXR-target genes (BSEP, SHP) during osteoblast differentiation; type: cell-based, mouse; conditions: for mRNA expression level of FXR: with BMP-2 50 ng/mL, 6 and 12 days, 10 μM CDCA, 5 μM GW4064, 5 μM 3 or 4, vs BMP-2-treated cells
Procedure: (§1) Mouse ST-2 MSCs were obtained from RIKEN BioResource Research Center (Tsukuba, Japan) and cultured in RPMI-1640 medium (Sigma) containing 10% (v/v) fetal calf serum and antibiotics (100 units/mL penicillin and 100 μg/mL streptomycin; Nacalai Tesque) at 37 °C in an atmosphere of 5% CO2. The ST-2 MSCs were allowed to differentiate into osteoblasts for 6 or 12 days in RPMI-1640 medium with BMP-2 (50 ng/mL). The medium was changed every 3 days.
(§2) RNAiso Plus was used to isolate total RNA (Takara-Bio, Kyoto, Japan). Subsequently total RNA (1 μg) was reverse-transcribed to cDNAs using ReverTra Ace reverse transcriptase (Toyobo, Osaka, Japan) and random hexamer (Takara-Bio). Thereafter, the mRNA levels were determined by qPCR analysis using a Power SYBR Green Master Mix (Thermo Fisher Scientific) in an Applied Biosystems 7500 Real Time PCR System (Thermo Fisher Scientific). The relative mRNA expression levels were determined using the 2^−ΔΔCT method and normalized to that of glyceraldehyde-3-phosphate dehydrogenase (GAPDH).

[4] = test system: ST-2 MSCs; assay: ALP staining and ALP activity in BMP-2-induced osteoblast differentiation; type: cell-based, mouse; conditions: for staining and activity of ALP: with BMP-2 50 ng/mL, 6 or 12 days, 10 μM CDCA, 5 μM GW4064, 5 μM 3 or 4, vs BMP-2-treated cells
Procedure: as §1
The ST-2 MSCs were allowed to differentiate into osteoblasts for 12 days in RPMI-1640 medium with BMP-2 (50 ng/mL) and one of FXR agonists together with or without GS (25 μM). Then, the cells were washed twice with PBS and fixed with 10% (v/v) formaldehyde in PBS at 25 °C for 10 min. The cells were again washed with PBS, and incubated with the staining solution (0.1 mg/mL naphthol AS-MX phosphate and 0.6 mg/mL Fast-blue BB salt in 0.1 M Tris-Cl, pH 8.8) at 25 °C for 30 min. After removing the staining solution, the cells were washed with PBS and visualized under a microscope (CKX-41, Olympus, Tokyo, Japan).
The ALP activity was measured using LabAssay ALP (FUJIFILM Wako Pure Chemical) according to the manufacturer’s protocols. Protein concentrations were measured using a Pierce BCA Protein Assay Kit (Thermo Fisher Scientific).

[5] = test system: ALP gene expression in ST-2 MSCs; assay: qPCR of ALP gene during osteoblast differentiation; type: cell-based, mouse; conditions: for ALP gene expression (mRNA level): with BMP-2 50 ng/mL, 6 or 12 days, 10 μM CDCA, 5 μM GW4064, 5 μM 3 or 4, vs BMP-2-treated cells
Procedure: as §1, §2

[6] = test system: RUNX2, COL1A1 and OCN gene expression in ST-2 MSCs; assay: qPCR of osteogenic genes (RUNX2, COL1A1, OCN) during osteoblast differentiation; type: cell-based, mouse; conditions: for expression of RUNX2, COL1A1 and OCN genes: with BMP-2 50 ng/mL, 10 μM CDCA, 5 μM GW4064, 5 μM 3 or 4, vs BMP-2-treated cells
Procedure: as §1, §2

[7] = test system: FXR; conditions: cited from earlier work

Row | SMILES | cytotoxicity (cell viability, WST assay) [2] | mRNA expression level of FXR [3] | staining and activity of ALP [4] | ALP gene expression (mRNA level) [5] | expression of RUNX2, COL1A1 and OCN genes ([6]; 6 days) | also measured
1 | CC(C)c1onc(-c2c(Cl)cccc2Cl)c1COc1ccc(-c2nc3cc(C(=O)O)ccc3n2C)cc1 [FXR agonist 2] | – | – | – | – | – | LXRα-response element-driven luciferase activity [1]: increased
2 | C[C@H](CCC(=O)O)[C@H]1CC[C@H]2[C@@H]3[C@H](O)C[C@@H]4C[C@H](O)CC[C@]4(C)[C@H]3CC[C@]12C [CDCA, chenodeoxycholic acid] | No cytotoxicity | elevated | elevated | elevated | further enhanced | –
3 | CC(C)c1onc(-c2c(Cl)cccc2Cl)c1COc1ccc(-c2nc3ccc(C(=O)O)cc3n2C)c(Cl)c1 [FXR agonist 4, 2-[2-Chloro-4-[[3-(2,6-dichlorophenyl)-5-isopropyl-isoxazol-4-yl]methoxy]phenyl]-3-methyl-benzimidazole-5-carboxylic acid] | No cytotoxicity | elevated | enhanced | enhance | elevated | –
4 | CC[C@H]1[C@@H](O)[C@@H]2[C@H](CC[C@]3(C)[C@@H]([C@H](C)CCC(=O)O)CC[C@@H]23)[C@@]2(C)CC[C@@H](O)C[C@@H]12 [6-ECDCA, 6α-ethylchenodeoxycholic acid] | – | – | – | – | – | potency relative to CDCA [7]: about 100 fold
5 | CC(C)c1onc(-c2c(Cl)cccc2Cl)c1COc1ccc(-c2nc3ccc(C(=O)O)cc3n2C)cc1Cl [FXR agonist 3] | No cytotoxicity | elevated | enhanced | enhance | elevated | ability to enhance ALP staining and activity compared with GW4064 ([4]; 6- or 12-days-differentiated ST-2 MSCs, 5 μM): comparable to that of GW4064; ability to enhance ALP gene expression compared with GW4064 ([5]; 5 μM, with BMP-2): comparable to that of GW4064; increase of RUNX2, COL1A1 and OCN expression compared with GW4064 ([6]; 6 days, 5 μM, with BMP-2): comparable to that of GW4064
6 | CC(C)c1onc(-c2c(Cl)cccc2Cl)c1COc1ccc(/C=C/c2cccc(C(=O)O)c2)c(Cl)c1 [GW4064] | No cytotoxicity | elevated | elevated | elevated | further enhanced | –
7 | C/C=C1\C(=O)C[C@H]2[C@@H]3CCC4=CC(=O)CC[C@]4(C)[C@H]3CC[C@]12C [GS, (Z)-guggulsterone] | – | – | – | – | – | effect on FXR agonist-induced BSEP and SHP expression ([3]; co-treatment with 25 μM GS): suppressed; effect on FXR agonist-induced FXR gene expression ([3]; co-treatment with 25 μM GS): repressed; effect on FXR agonist-induced staining and activity of ALP ([4]; co-treatment with 25 μM GS): suppressed; effect on FXR agonist-induced ALP gene expression ([5]; co-treatment with 25 μM GS): repressed; effect on novel FXR agonist-induced expression of osteogenic genes ([6]; co-treatment with 25 μM GS): repressed
8 | CC(C)c1onc(-c2c(Cl)cccc2Cl)c1COc1ccc(-c2nc3ccc(C(=O)O)cc3n2C)cc1 [FXR agonist 1] | – | – | – | – | – | LXRα-response element-driven luciferase activity [1]: increased
